Measurements published in PubChem BioAssay (NCI).
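Growth conditions: 96-well plates. Treatment: test compound, 48 hours, 5 concentrations. Analysis: linear interpolation between bracketing concentrations; unreached endpoints set to highest concentration. TGI: concentration producing complete growth inhibition.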

How the values were obtained:
Assay in all cases: NCI-60 cell line screen, 48 h
[1] = test system: SK-MEL-28 melanoma
[2] = test system: LXFL 529 NSCLC
[3] = test system: NCI-H522 lung
[4] = test system: M19-MEL melanoma
[5] = test system: 786-0 renal
[6] = test system: NCI-H460 lung
[7] = test system: HT29 colon
[8] = test system: OVCAR-5 ovarian
[9] = test system: UACC-257 melanoma
[10] = test system: SW-620 colon
[11] = test system: A549 NSCLC
[12] = test system: KM20L2 colon
[13] = test system: HCC-2998 colon
[14] = test system: OVCAR-8 ovarian
[15] = test system: K-562 leukemia
[16] = test system: A498 renal
[17] = test system: COLO 205 colon
[18] = test system: SF-268 CNS
[19] = test system: NCI-H226 lung
[20] = test system: HCT-15 colon
[21] = test system: SK-OV-3 ovarian
[22] = test system: SNB-19 CNS
[23] = test system: ACHN renal
[24] = test system: SF-539 CNS
[25] = test system: XF 498 CNS
[26] = test system: DLD-1 colon
[27] = test system: M14 melanoma
[28] = test system: CAKI-1 renal
[29] = test system: LOX IMVI melanoma
[30] = test system: DMS 273 small cell lung
[31] = test system: MOLT-4 leukemia
[32] = test system: SK-MEL-2 melanoma
[33] = test system: UACC-62 melanoma
[34] = test system: UO-31 renal
[35] = test system: U251 CNS
[36] = test system: NCI-H23 lung
[37] = test system: SK-MEL-5 melanoma
[38] = test system: EKVX NSCLC
[39] = test system: HOP-62 NSCLC
[40] = test system: CCRF-CEM leukemia
[41] = test system: OVCAR-3 ovarian
[42] = test system: TK-10 renal
[43] = test system: HL-60(TB) leukemia
[44] = test system: SN12C renal
[45] = test system: RXF 393 renal
[46] = test system: KM12 colon
[47] = test system: HCT-116 colon
[48] = test system: SF-295 CNS
[49] = test system: RPMI-8226 leukemia
[50] = test system: SNB-75 CNS
[51] = test system: IGROV1 ovarian
[52] = test system: SNB-78 CNS
[53] = test system: MALME-3M melanoma
[54] = test system: BT-549 breast
[55] = test system: PC-3 prostate
[56] = test system: NCI/ADR-RES ovarian
[57] = test system: MDA-MB-231 breast
[58] = test system: HS 578T breast
[59] = test system: MDA-N
[60] = test system: T-47D breast
[61] = test system: MDA-MB-435
[62] = test system: HOP-92 NSCLC
[63] = test system: DU-145 prostate
[64] = test system: SR leukemia
[65] = test system: MCF7 breast

`NC(=O)c1cccc(C2OC(COP(=O)(O)O)C(O)C2O)c1` (stereo not given) gave a TGI [1] of over 50 µM, a TGI [2] of over 50 µM and a TGI [3] of over 50 µM. For the same molecule, the TGI [4] was over 50 µM, the TGI [5] was over 50 µM and the TGI [6] was over 50 µM. The TGI [7] was over 50 µM, the TGI [8] was over 50 µM and the TGI [9] was over 50 µM. For the same molecule, the TGI [10] was over 50 µM, the TGI [11] was over 50 µM and the TGI [12] was over 50 µM. For the same molecule, the TGI [13] was over 50 µM, the TGI [14] was over 50 µM and the TGI [15] was over 50 µM. It also gave a TGI [16] of over 50 µM, a TGI [17] of over 50 µM and a TGI [18] of over 50 µM. For the same molecule, the TGI [19] was over 50 µM, the TGI [20] was over 50 µM and the TGI [21] was over 50 µM. The TGI [22] was over 50 µM, the TGI [23] was over 50 µM and the TGI [24] was over 50 µM. For the same molecule, the TGI [25] was over 50 µM, the TGI [26] was over 50 µM and the TGI [27] was over 50 µM. For the same molecule, the TGI [28] was over 50 µM, the TGI [29] was over 50 µM and the TGI [30] was over 50 µM. It also gave a TGI [31] of over 50 µM, a TGI [32] of over 50 µM and a TGI [33] of over 50 µM. It also gave a TGI [34] of over 50 µM, a TGI [35] of over 50 µM and a TGI [36] of over 50 µM. It also gave a TGI [37] of over 50 µM, a TGI [38] of over 50 µM and a TGI [39] of over 50 µM. For the same molecule, the TGI [40] was over 50 µM, the TGI [41] was over 50 µM and the TGI [42] was over 50 µM. It also gave a TGI [43] of over 50 µM, a TGI [44] of over 50 µM and a TGI [45] of over 50 µM. For the same molecule, the TGI [46] was over 50 µM, the TGI [47] was over 50 µM and the TGI [48] was over 50 µM. It also gave a TGI [49] of over 50 µM, a TGI [50] of over 50 µM and a TGI [51] of over 50 µM. The TGI [52] was over 50 µM and the TGI [53] was over 50 µM.

`COc1ccc(NC(=O)CC(=O)N2N=C(c3ccccc3)C(N=Nc3ccc(S(=O)(=O)CCOS(=O)(=O)O)cc3)C2=O)cc1` (stereo not given) gave a TGI [1] of over 100 µM, a TGI [3] of over 100 µM and a TGI [54] of over 100 µM. For the same molecule, the TGI [55] was over 100 µM, the TGI [5] was over 100 µM and the TGI [6] was over 100 µM. The TGI [7] was over 100 µM, the TGI [9] was over 100 µM and the TGI [10] was over 100 µM. It also gave a TGI [56] of over 100 µM, a TGI [57] of over 100 µM and a TGI [11] of over 100 µM. For the same molecule, the TGI [58] was over 100 µM, the TGI [13] was over 100 µM and the TGI [14] was over 100 µM. It also gave a TGI [15] of over 100 µM, a TGI [16] of over 100 µM and a TGI [59] of over 100 µM. For the same molecule, the TGI [17] was over 100 µM, the TGI [18] was over 100 µM and the TGI [19] was over 100 µM. The TGI [20] was over 100 µM, the TGI [21] was over 100 µM and the TGI [22] was over 100 µM. For the same molecule, the TGI [23] was over 100 µM, the TGI [24] was over 100 µM and the TGI [27] was over 100 µM. The TGI [60] was over 100 µM, the TGI [28] was over 100 µM and the TGI [29] was over 100 µM. For the same molecule, the TGI [61] was over 100 µM, the TGI [62] was over 100 µM and the TGI [31] was over 100 µM. The TGI [32] was over 100 µM, the TGI [33] was over 100 µM and the TGI [34] was over 100 µM. For the same molecule, the TGI [35] was over 100 µM, the TGI [36] was over 100 µM and the TGI [63] was over 100 µM. The TGI [37] was over 100 µM, the TGI [38] was over 100 µM and the TGI [39] was over 100 µM. It also gave a TGI [40] of over 100 µM, a TGI [41] of over 100 µM and a TGI [64] of over 100 µM. The TGI [65] was over 100 µM, the TGI [42] was over 100 µM and the TGI [43] was over 100 µM. For the same molecule, the TGI [44] was over 100 µM, the TGI [45] was over 100 µM and the TGI [46] was over 100 µM. For the same molecule, the TGI [47] was over 100 µM, the TGI [48] was over 100 µM and the TGI [49] was over 100 µM. It also gave a TGI [50] of over 100 µM, a TGI [51] of over 100 µM and a TGI [53] of over 100 µM.
